According to patent US9840500B2, “Compounds as dual inhibitors of histone methyltransferases and DNA methyltransferases” (FUNDACIÓN PARA LA INVESTIGACIÓN MÉDICA APLICADA, priority 2014, dated 2017):

What was measured:
CEMO-1 = assay: Cell proliferation assay, CEMO-1 (ALL); type: cell-based, human; conditions: Homo sapiens; 48 hours of treatment; Table 3
Procedure: (§1) Cell proliferation was analyzed after 48 hours of in vitro treatment using the CellTiter 96 Aqueous One Solution Cell Proliferation Assay (Promega, Madison, Wis.). This is a colorimetric method for determining the number of viable cells in proliferation.
(§2) For the assay, suspension cells were cultured by triplicate at a density of 1×10^6 cells/ml in 96-well plates (100.000 cells/well, 100 μl/well), except for OCILY-3 and OCILY-10 cell lines which were cultured at a density of 0.5×10^6 cells/ml (50.000 cells/well, 100 μl/well) and for HepG2, Hep3B and PLC/PRF/5 cell ines which were cultured at a density of 3000 cells/well, 100 μl/well). Adherent cells were obtained from 80-90% confluent flasks and 100 μl of cells were seeded at a density of 5000 cells/well in 96-well plates by triplicate. Before addition of the compounds, adherent cells were allowed to attach to the bottom of the wells for 12 hours. In all cases, only the 60 inner wells were used to avoid any border effects.
(§3) After 48 hours of treatment, plates with suspension cells were centrifuged at 800 g for 10 minutes and medium was removed. The plates with adherent cells were flicked to remove medium. Then, cells were incubated with 100 ul/well of medium and 20 ul/well of CellTiter 96 Aqueous One Solution reagent. After 1-3 hours of incubation at 37° C., absorbance was measured at 490 nm in a 96-well plate reader. The background absorbance was measured in wells with only cell line medium and solution reagent. Data was calculated as a percentage of total absorbance of treated cell/absorbance of non treated cells.

HepG2 = assay: Cell proliferation assay, HepG2 (HCC); type: cell-based; conditions: Homo sapiens, 48 hours of treatment, Table 3
Procedure: as §1, §2, §3

PLC/PRF/5 = assay: Cell proliferation assay, PLC/PRF/5 (HCC); type: cell-based; conditions: Homo sapiens, 48 hours of treatment, Table 3
Procedure: as §1, §2, §3

OCI-Ly3 = assay: Cell proliferation assay, OCI-Ly3 (ABC-DLBCL); type: cell-based; conditions: Homo sapiens, 48 hours of treatment, Table 3
Procedure: as §1, §2, §3

OCI-Ly10 = assay: Cell proliferation assay, OCI-Ly10 (ABC-DLBCL); type: cell-based; conditions: Homo sapiens, 48 hours of treatment, Table 3
Procedure: as §1, §2, §3

Hep3B = assay: Cell proliferation assay, Hep3B (HCC); type: cell-based; conditions: Homo sapiens, 48 hours of treatment, Table 3
Procedure: as §1, §2, §3

human G9a enzyme = molecular target: T1, human G9a enzyme (Homo sapiens, UniProt Q96KQ7); assay: G9a enzyme activity assay (TR-FRET); type: biochemical
T1 sequence (Q96KQ7 1-1210): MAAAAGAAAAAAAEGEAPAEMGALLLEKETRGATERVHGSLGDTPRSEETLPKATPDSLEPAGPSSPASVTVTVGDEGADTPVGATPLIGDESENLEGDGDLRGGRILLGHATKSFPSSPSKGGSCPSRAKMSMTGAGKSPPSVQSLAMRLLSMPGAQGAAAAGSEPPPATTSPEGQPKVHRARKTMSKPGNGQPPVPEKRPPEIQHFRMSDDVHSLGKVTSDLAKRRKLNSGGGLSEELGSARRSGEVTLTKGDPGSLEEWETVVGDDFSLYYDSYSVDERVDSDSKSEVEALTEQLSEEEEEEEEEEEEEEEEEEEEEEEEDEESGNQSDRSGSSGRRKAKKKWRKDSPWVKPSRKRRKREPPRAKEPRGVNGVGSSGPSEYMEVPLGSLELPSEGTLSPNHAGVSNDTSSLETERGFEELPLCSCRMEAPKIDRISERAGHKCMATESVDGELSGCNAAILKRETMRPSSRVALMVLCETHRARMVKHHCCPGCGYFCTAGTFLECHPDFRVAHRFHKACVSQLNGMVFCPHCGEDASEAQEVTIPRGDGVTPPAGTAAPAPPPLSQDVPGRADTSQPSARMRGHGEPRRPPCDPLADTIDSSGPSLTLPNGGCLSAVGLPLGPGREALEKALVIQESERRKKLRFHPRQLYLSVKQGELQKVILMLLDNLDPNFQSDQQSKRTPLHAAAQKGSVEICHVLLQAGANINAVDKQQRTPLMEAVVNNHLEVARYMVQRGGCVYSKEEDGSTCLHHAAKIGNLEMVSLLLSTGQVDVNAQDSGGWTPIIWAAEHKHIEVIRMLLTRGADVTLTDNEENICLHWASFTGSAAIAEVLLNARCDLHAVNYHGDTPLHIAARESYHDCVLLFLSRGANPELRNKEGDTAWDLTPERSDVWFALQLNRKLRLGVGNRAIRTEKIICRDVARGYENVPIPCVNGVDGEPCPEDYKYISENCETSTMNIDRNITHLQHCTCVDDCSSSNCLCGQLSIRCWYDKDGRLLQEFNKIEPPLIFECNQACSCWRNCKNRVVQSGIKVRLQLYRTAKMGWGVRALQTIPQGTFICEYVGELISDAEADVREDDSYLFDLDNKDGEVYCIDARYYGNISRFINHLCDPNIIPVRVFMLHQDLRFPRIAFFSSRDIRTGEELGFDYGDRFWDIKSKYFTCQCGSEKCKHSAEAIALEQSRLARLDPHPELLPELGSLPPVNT
Procedure: The biochemical assay to measure G9a enzyme activity relies on time-resolved fluorescence energy transfer (TR-FRET) between europium cryptate (donor) and XL665 (acceptor). […] The human G9a enzyme expressed in a baculovirus infected Sf9 cell expression system was obtained from BPS Biosciences (Cat. #51001). […] Final percentage of DMSO was 0.5%. • 2 μl of 1 nM G9a enzyme diluted in assay buffer. […] Final concentration 150 nM. • Then, add 5 μl of streptavidin XL665 beads. Final concentration of 16 μM. • Read the plate after 1 hour of incubation at room temperature.
(§4) For each well, fluorescence was measured at 620 nm and 665 nm. A ratio (665 nm/620 nm) was then calculated in order to minimize medium interferences. Positive control was obtained in the presence of the vehicle of the compounds. Negative control was obtained in the absence of G9a enzyme activity. Calculated IC50 values were determined using GraphPrism using 4-parameters inhibition curve.

DNMT1 = DNMT1 (Homo sapiens, UniProt P26358); assay: DNMT1 enzyme activity assay (TR-FRET, EPIgeneous methyltransferase assay); type: biochemical
Chain of DNMT1 (P26358 whole entry): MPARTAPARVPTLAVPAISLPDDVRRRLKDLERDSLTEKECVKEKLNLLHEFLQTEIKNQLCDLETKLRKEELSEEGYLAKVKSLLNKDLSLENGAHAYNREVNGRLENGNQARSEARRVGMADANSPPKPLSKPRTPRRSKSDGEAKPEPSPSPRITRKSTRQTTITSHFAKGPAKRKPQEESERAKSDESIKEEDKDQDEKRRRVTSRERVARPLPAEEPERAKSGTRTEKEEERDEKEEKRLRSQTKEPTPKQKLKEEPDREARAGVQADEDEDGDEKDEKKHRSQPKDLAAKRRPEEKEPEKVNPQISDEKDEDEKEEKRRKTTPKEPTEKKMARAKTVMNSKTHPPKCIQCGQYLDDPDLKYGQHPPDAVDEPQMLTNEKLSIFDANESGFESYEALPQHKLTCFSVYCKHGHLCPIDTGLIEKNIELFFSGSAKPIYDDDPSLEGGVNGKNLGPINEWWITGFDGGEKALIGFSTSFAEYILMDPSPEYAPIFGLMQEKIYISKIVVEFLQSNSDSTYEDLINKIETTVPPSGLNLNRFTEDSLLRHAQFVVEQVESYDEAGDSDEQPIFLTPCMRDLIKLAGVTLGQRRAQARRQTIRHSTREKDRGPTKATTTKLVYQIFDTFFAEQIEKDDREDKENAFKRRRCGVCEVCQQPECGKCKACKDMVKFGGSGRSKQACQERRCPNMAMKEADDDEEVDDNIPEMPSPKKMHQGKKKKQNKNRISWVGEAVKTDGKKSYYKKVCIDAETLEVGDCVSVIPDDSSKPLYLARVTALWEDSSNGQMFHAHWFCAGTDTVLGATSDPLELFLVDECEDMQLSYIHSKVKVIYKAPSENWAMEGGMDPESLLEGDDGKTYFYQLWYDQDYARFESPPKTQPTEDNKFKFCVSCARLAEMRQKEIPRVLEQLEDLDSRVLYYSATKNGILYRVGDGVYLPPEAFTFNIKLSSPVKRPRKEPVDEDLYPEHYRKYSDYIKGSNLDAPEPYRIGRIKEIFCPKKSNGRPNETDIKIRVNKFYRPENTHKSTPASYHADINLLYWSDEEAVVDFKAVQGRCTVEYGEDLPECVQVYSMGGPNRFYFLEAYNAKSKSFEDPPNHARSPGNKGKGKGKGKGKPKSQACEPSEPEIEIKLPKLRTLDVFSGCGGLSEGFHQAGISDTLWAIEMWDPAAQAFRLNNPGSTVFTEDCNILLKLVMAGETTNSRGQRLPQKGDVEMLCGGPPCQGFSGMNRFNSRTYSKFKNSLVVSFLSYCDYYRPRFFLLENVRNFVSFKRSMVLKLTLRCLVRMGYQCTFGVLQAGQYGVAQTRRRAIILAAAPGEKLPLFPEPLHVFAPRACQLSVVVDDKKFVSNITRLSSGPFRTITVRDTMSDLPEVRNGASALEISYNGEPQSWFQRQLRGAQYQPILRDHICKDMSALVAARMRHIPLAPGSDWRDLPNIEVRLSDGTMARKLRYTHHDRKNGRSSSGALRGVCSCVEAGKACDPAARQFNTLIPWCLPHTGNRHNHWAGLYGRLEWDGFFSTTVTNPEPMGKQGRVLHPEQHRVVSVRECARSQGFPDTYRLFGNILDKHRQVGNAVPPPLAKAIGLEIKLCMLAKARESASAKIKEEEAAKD
Procedure: The biochemical assay to measure DNMT1 enzyme activity relies on time-resolved fluorescence energy transfer (TR-FRET) between lumi4-Tb (donor) and d2 (acceptor) using the EPIgeneous methyltransferase assay (CisBio Cat#62SAHPEB). […] TR-FRET signal is inversely proportional to the concentration of SAH, product of DNMT1 enzyme activity, in the sample.
The human DNMT1 was obtained from Reaction Biology Corp. (Cat# DMT-21-124). […] Final percentage of DMSO was 0.5%. • 2 μl of 1 nM DNMT1 enzyme diluted in assay buffer.
as §4

LAL-CUN-2 = assay: Cell proliferation assay, LAL-CUN-2 (ALL); type: cell-based; conditions: 48 hours of treatment; Table 3
Procedure: as §1, §2, §3

| SMILES | GI50 (CEMO-1) [nM] | GI50 (HepG2) [nM] | GI50 (PLC/PRF/5) [nM] | GI50 (OCI-Ly3) [nM] | GI50 (OCI-Ly10) [nM] | GI50 (Hep3B) [nM] | IC50 (human G9a enzyme) [nM] | IC50 (DNMT1) [nM] | GI50 (LAL-CUN-2) [nM] |
| --- | --- | --- | --- | --- | --- | --- | --- | --- | --- |
| CNC(=O)CCNc1cc(-c2ccc(C)o2)nc2cc(OCCCN3CCCC3)c(OC)cc12 [Compound 3-19] | 1000 to 10000 | ≤ 10000 | 1000 to 10000 | 100 to 1000 | 100 to 1000 | 1000 to 10000 |  |  |  |
| COc1cc2c(NC3CCCC3)cc(C)nc2cc1OCCCN1CCCC1 [Compound 3-24] |  |  |  |  | 1000 to 10000 |  | < 100 | 1000 to 10000 |  |
| COc1cc2c(NC3CCN(C)CC3)cc(-c3ccc4occc4c3)nc2cc1OCCCN1CCCC1 [Compound 3-28] | 1000 to 10000 |  |  |  | < 100 |  | < 100 | 500 to 1000 |  |
| COc1cc2c(NC3CCN(C)CC3)cc(-c3ccccc3)nc2cc1OCCCN1CCCC1 [Compound 3-29] | 100 to 1000 | 1000 to 10000 | 1000 to 10000 | 100 to 1000 | 100 to 1000 | 1000 to 10000 | < 100 | 1000 to 10000 |  |
| CCc1ccc(-c2cc(NC3CCN(C)CC3)c3cc(OC)c(OCCCN4CCCC4)cc3n2)o1 [Compound 3-41] |  | 100 to 1000 | 100 to 1000 |  |  | 100 to 1000 |  |  | 100 to 1000 |
| CCc1ccc(-c2cc(NCC3CCN(C)CC3)c3cc(OC)c(OCCCN4CCCC4)cc3n2)o1 [Compound 3-42] |  | < 100 | 100 to 1000 | 100 to 1000 |  | 100 to 1000 |  |  | 100 to 1000 |
| COc1cc2c(NC3CC4(CCN(C)CC4)C3)cc(-c3ccc(C)o3)nc2cc1OCCCN1CCCC1 [Compound 5-02] |  | 1000 to 10000 | 1000 to 10000 | 100 to 1000 |  | 1000 to 10000 |  |  |  |
| COc1cc2c(NC3CC4(CCN(C)C4)C3)cc(-c3ccc(C)o3)nc2cc1OCCCN1CCCC1 (stereo not shown) [Compound 5-03] |  |  |  | 100 to 1000 |  |  |  |  | 1000 to 10000 |
| COc1cc2c(NC3CCC34CCN(C)C4)cc(-c3ccc(C)o3)nc2cc1OCCCN1CCCC1 (stereo not shown) [Compound 5-04] |  |  |  | 100 to 1000 |  |  |  |  | 1000 to 10000 |
| CCc1ccc(-c2cc(NC3CCC34CCN(C)CC4)c3cc(OC)c(OCCCN4CCCC4)cc3n2)o1 (stereo not shown) [Compound 5-07, 2-(5-ethyl-2-furyl)-6-methoxy-N-(7-methyl-7-azaspiro[3.5]nonan-3-yl)-7-(3-pyrrolidin-1-ylpropoxy)quinolin-4-amine; 2,2,2-trifluoroacetic acid] |  | 100 to 1000 | 100 to 1000 | < 100 |  | 100 to 1000 |  |  |  |
| COc1cc2c(NC3CCN(C)CC3)cc(C3=CCCCC3)nc2cc1OCCCN1CCCC1 [Compound 6-01, 2-(cyclohexen-1-yl)-6-methoxy-N-(1-methyl-4-piperidyl)-7-(3-pyrrolidin-1-ylpropoxy)quinolin-4-amine; 2,2,2-trifluoroacetic acid] | 1000 to 10000 |  |  |  |  |  | < 100 | 100 to 500 | 1000 to 10000 |
| COc1cc2c(NC3CCN(C)CC3)cc(-c3ccc(C)o3)nc2cc1OCC1CCNCC1 [Compound 11-01, 6-methoxy-2-(5-methyl-2-furyl)-N-(1-methyl-4-piperidyl)-7-(4-piperidylmethoxy)quinolin-4-amine; 2,2,2-trifluoroacetic acid] |  | 1000 to 10000 | 1000 to 10000 | < 100 |  | 1000 to 10000 |  |  |  |
| COc1cc2c(NC3CCN(C)CC3)cc(-c3ccc(C)o3)nc2cc1OC1CCN(C)CC1 [Compound 12-02] | 100 to 1000 | 1000 to 10000 | 1000 to 10000 | 100 to 1000 | 100 to 1000 | 1000 to 10000 |  |  |  |
| COc1cc2c(NC3CC4(CCN(C)CC4)C3)cc(-c3ccc(C)o3)nc2cc1OCC1CCN(C)CC1 [Compound 12-03] |  | 100 to 1000 | 100 to 1000 | < 100 |  | 100 to 1000 |  |  |  |
| COc1cc2c(NC3CCN(C)CC3)cc(-c3ccc(C)o3)nc2cc1OC1CC2(CNC2)C1 [Compound 16-01, 7-(2-azaspiro[3.3]heptan-6-yloxy)-6-methoxy-2-(5-methyl-2-furyl)-N-(1-methyl-4-piperidyl)quinolin-4-amine; 2,2,2-trifluoroacetic acid] | 1000 to 10000 | ≤ 10000 | ≤ 10000 |  |  | ≤ 10000 | 1000 to 10000 | 100 to 500 |  |
| COc1cc2c(NC3CCN(C)CC3)cc(-c3ccc(C)o3)nc2cc1OC1CC2(C1)CN(C)C2 [Compound 17-01, 6-methoxy-7-[(2-methyl-2-azaspiro[3.3]heptan-6-yl)oxy]-2-(5-methyl-2-furyl)-N-(1-methyl-4-piperidyl)quinolin-4-amine; 2,2,2-trifluoroacetic acid] |  | 100 to 1000 | 100 to 1000 | < 100 |  | 100 to 1000 |  |  |  |
